According to patent US10233206B2, “D-fagomine for the control of inflammatory processes related to an overactivation of the humoral immune response” (priority 2013, dated 2019):
Values joined by “and” are separate entries in the source; they are usually repeats but may differ in a detail not shown here. Identical values can stand only once. “Also recorded” adds a separate entry of the source.

Assays:
[1] = Kim H. et al. 2005; cited from earlier work
[2] = Gomez L. et al. Br. J. Nutr. 2012; cited from earlier work
E. coli 434 = assay: Recovery of E. coli in tissue: ex vivo adhesion of E. coli to human colon mucosal samples (organ culture); assay type: cell-based; conditions: for E coli × 10 6 Recovery on tissue: 4 h culture with E. coli, individual samples 1 and 2; for E coli × 10 6 Standarized 30 mg, Average: mean of 2 samples; for E coli × 10 6 Standarized 30 mg: normalized to 30 mg tissue, individual samples; for E. coli recovery in tissue, Average % over control: control Ec = 100.0%
Experimental: (§1) The aim of this investigation was to determine the effects “ex vivo” of D-fagomine on the adhesion of E. coli to human colon mucosal samples and their possible influence on the release of inflammatory mediators on a range of doses as an indication of the activation of the innate immune response.
(§2) The approach, included the incubation of an E. coli strain with mucosal colonic samples obtained by surgery. The intention was to preserve the whole structure of mucosal samples including multiple cell populations such as epithelial cells and immunocompetent cells (macrophages, dendritic cells, plasma cells and lymphocytes), all of them keeping their original structure and disposition for cell to cell interaction. In other words, the approach was intended for mimicking the “in vivo” conditions of the colon mucosa.
In the design of the study doses of 0, 50, 500 and 5000 μg/ml of D-fagomine were tested.
Pathogenic strains of E coli were used. The main differences of pathogenic strains of E coli vs. other non pathogenic are related to their capacity to avoid the immune system.
(§3) Samples of macroscopically normal colonic mucosa were obtained at surgery from patients undergoing colectomy for colonic cancer. Areas free of disease were collected in ice-cold saline and transferred immediately to the Laboratory of the Digestive Research Unit of Hospital's Vail d'Hebron (Barcelona). After washing with saline, the mucosa was dissected from the muscularis layer and pieces between 25 and 30 mg were placed surface up in culture wells (15 mm diameter wells with 500 μm bottom mesh, Netwell culture systems, Costar, Cambridge, Mass.), and orientated so that the epithelial surface was upper-most. Filters were suspended over wells containing 1.5 ml of RPMI edium (CanSera, Rexdale, Ontario, Canada) supplemented with 10% foetal calf serum (FCS; Gibco-BRL, Eggenstein, Germany), glutamine 2 mM and antibiotics: 100 U/ml penicillin, 100 microg/ml streptomycin and 50 microg/ml gentamycin, (all from Normon, Madrid, Spain). This volume is just for maintaining the humidity of the surface but not for sinking beneath the surface.
(§4) Biopsies were incubated at 37° C. in a 95% O2+5% CO2 atmosphere and stimulated during 1 h with PMA (phorbol-12-myristate-13-acetate) and lonomycin (100/1000 ng/mL), both available from Sigma.
(§5) Thereafter, medium was replaced by fresh RPMI 1640 medium (without glucose) supplemented with 10% FCS and sodium bicarbonate at 24 mmol/L.
(§6) Bacteria strain E. coli ([…]) and fagomine (50, 500 and 5000 μg/mL) were added carefully to the explants. After 4 h of culture of tissues with E. coli, supernatants were collected for measurement of E. coli recovery, release of TNF-α, LDH (viability) and pH. Moreover, the tissues were rinsed, homogenized and assayed for E. coli recovery and LDH (to study tissue viability).
The pathogenic E. coli reference strain (CECT 434, (Migula 1895) Castellani and Chalmers 1919) was provided by Dr. Maria Angeles Calvo (Microbiology Laboratory, Faculty of Veterinary, Autonomous University of Barcelona, Spain)
The day before of the experiment with tissue, the E. coli strain was inoculated in Luria Bertani broth (Pharmacy, Hospital Vail d'Hebron, Autonomous University of Barcelona, Spain) at 37° C. under aerobic conditions for 24 h. The day of the experiment bacteria were harvested in the stationary phase, cell counts in the bacterial suspension were estimated by optical density at 600 nm absorbance, and bacteria were added to the tissue-culture wells at the appropriate dilution.
In order to quantify only the adherent E. coli bacteria, at the end of the culture, tissues were recovered and rinsed with 2 ml of saline in an orbital mixer at low speed during 2 minutes. After rinsing, each tissue was homogenized in 1 ml of saline and dilutions were prepared to quantify the recovery of E. coli in solid agar selective media. […]

bacteria [3] = conditions: WO2011117362; cited from earlier work
TNF-α = TNF-α release into the supernatant of human colon mucosa organ culture with E. coli (ELISA); assay type: cell-based; conditions: for TNF-alfa (1.5 ml standarized 30 mg) / TNF-alfa/ml: individual samples, listed as Fag; for TNF-alfa (1.5 ml standarized 30 mg, Average): mean of 2 samples; for TNF-alfa/ml: supernatant after 4 h
Experimental: as §1, §2, §3, §4, §5, §6
Concentration of TNF-α in the supernatants was measured using a commercially available ELISA assay system for human citoquine TNF-α (Ready to Set, e-Bioscience). Cytokine concentration is expressed as pg (TNF-α) per 30 mg of tissue.

bacteria [4] = conditions: Gomez L. et al.; Castillo J. A. et al.; cited from earlier work
colon tissue = assay: Colon viability (LDH release); assay type: cell-based, human
Experimental: as §3, §6
To estimate tissue viability, we calculated LDH (lactate-dehydrogenase) activity release in the supernatant. This method was validated by Finnie (Gut 1995). The ratio of LDH activity in the supernatant over total LDH activity in tissue homogenates was calculated and used to estimate the percentage of viable tissue. Tissue samples were homogenized in Tris/HCl (100 mmol/L, pH 7.4) and supernatants were analysed for LDH using the spectrophotometric method. Tissue viability was assessed as the release of LDH per mg of tissue.

[5] = D-fagomine 50 μg/ml, listed as Fag
[6] = D-fagomine 500 μg/ml, listed as Fag
[7] = D-fagomine 50 μg/ml with E. coli
[8] = D-fagomine 500 μg/ml with E. coli
[9] = D-fagomine 5000 μg/ml with E. coli

C[C@@H]1O[C@@H](OC[C@H]2O[C@@H](Oc3c(-c4ccc(O)c(O)c4)oc4cc(O)cc(O)c4c3=O)[C@H](O)[C@@H](O)[C@@H]2O)[C@H](O)[C@H](O)[C@H]1O [rutin]
Stability and deglycosylation in the intestine after oral administration (in words) [1]: stable in the upper intestine, but rapidly deglycosylated to liberate the quercetin at the level of the colon

OC[C@H]1NCC[C@@H](O)[C@@H]1O (stereo in doubt) [D-fagomine, (2R, 3R, 4R)-2-hydroxymethylpiperidine-3,4-diol]
Postprandial blood glucose level and insulin secretion (in words) [2]: decrease postprandrial blood glucose level without stimulating insulin secretion
Antiadherent effect against E. coli on colon mucosa (in words) (E. coli 434; 50, 500 and 5000 μg/ml): antiadherent properties against E. coli in a dose dependent manner; also recorded: antiadherent effect against E. coli on the colon epithelium
E coli × 10 6 Recovery on tissue (E. coli 434; [5]): 4 × 10 6 and 4.4 × 10 6
E coli × 10 6 Standarized 30 mg, Average (E. coli 434; D-fagomine 50 μg/ml): 4.22 × 10 6
E coli × 10 6 Standarized 30 mg (E. coli 434; [5]): 4.12 × 10 6 and 4.31 × 10 6
E. coli recovery in tissue, Average % over control (E. coli 434; D-fagomine 50 μg/ml): 56.6%
E coli × 10 6 Recovery on tissue (E. coli 434; [6]): 2.4 × 10 6 and 0.8 × 10 6
E coli × 10 6 Standarized 30 mg, Average (E. coli 434; D-fagomine 500 μg/ml): 1.56 × 10 6
E coli × 10 6 Standarized 30 mg (E. coli 434; [6]): 2.21 × 10 6 and 0.9 × 10 6
E. coli recovery in tissue, Average % over control (E. coli 434; D-fagomine 500 μg/ml): 21.0%
E coli × 10 6 Recovery on tissue (E. coli 434; D-fagomine 5000 μg/ml): 1.6 × 10 6
E coli × 10 6 Standarized 30 mg, Average (E. coli 434; D-fagomine 5000 μg/ml): 1.47 × 10 6
E coli × 10 6 Standarized 30 mg (E. coli 434; D-fagomine 5000 μg/ml, listed as Fag): 1.4 × 10 6 and 1.55 × 10 6
E. coli recovery in tissue, Average % over control (E. coli 434; D-fagomine 50 or 5000 μg/ml): 19.8%
Bacterial adherence to mucosal surface (in words) (bacteria [3]): inhibiting bacterial adherence to mucosal surface
TNF-alfa release at 50 μg/mL, times higher than at 500 μg/mL (TNF-α; 50 μg/mL versus 500 μg/mL): 5 times
TNF-alfa release at 50 μg/mL, times higher than at 5000 μg/mL (TNF-α; 50 μg/mL versus 5000 μg/mL): ~8 times
Stimulation of TNF-alfa release (in words) (TNF-α; 50, 500 and 5000 μg/ml with E. coli): capacity to stimulate the release of TNF-alfa and that the lower is the dose the more potent is such release; also recorded: stimulating the release of TNF-alfa either with respect to the control with E. coli or with respect to the control without E. coli
TNF-alfa (1.5 ml standarized 30 mg) (TNF-α; [7]): 145.4 pg (TNF-α) per 30 mg of tissue and 164.2 pg (TNF-α) per 30 mg of tissue
TNF-alfa (1.5 ml standarized 30 mg, Average) (TNF-α; [7]): 154.8 pg (TNF-α) per 30 mg of tissue
TNF-alfa/ml (TNF-α; [7]): 106.2 mL⁻¹ and 98.8 mL⁻¹
TNF-alfa (1.5 ml standarized 30 mg) (TNF-α; [8]): 31.9 pg (TNF-α) per 30 mg of tissue and 28.6 pg (TNF-α) per 30 mg of tissue
TNF-alfa (1.5 ml standarized 30 mg, Average) (TNF-α; [8]): 30.3 pg (TNF-α) per 30 mg of tissue
TNF-alfa/ml (TNF-α; [8]): 20.7 mL⁻¹ and 18.6 mL⁻¹
TNF-alfa (1.5 ml standarized 30 mg) (TNF-α; [9]): 8.2 pg (TNF-α) per 30 mg of tissue and 18.1 pg (TNF-α) per 30 mg of tissue
TNF-alfa (1.5 ml standarized 30 mg, Average) (TNF-α; [9]): 13.2 pg (TNF-α) per 30 mg of tissue
TNF-alfa/ml (TNF-α; [9]): 13.8 mL⁻¹ and 5.7 mL⁻¹
Antimicrobial activity (in words) (bacteria [4]): do not show antimicrobial activity
Viability LDH (colon tissue; E. coli + D-fagomine 50 μg/ml): 88.20%
Viability LDH (colon tissue; E. coli + D-fagomine 500 μg/ml): 91.47%
Viability LDH (colon tissue; E. coli + D-fagomine 5000 μg/ml): 83.88%
Effect on viability of the tissue (in words) (colon tissue; coculture with E. coli or fagomine): does not affect the viability of the tissue
